Results taken from patent US5726184A, “Tetralin compounds with improved MDR activity” (Vertex Pharmaceuticals Incorporated, priority 1995, dated 1998).
Read-outs that look alike come from different tables or passages of the source.

Experiments:
L1210vDOX = test: Reversal of MDR in L1210vDOX (MDR sensitization assay, doxorubicin with or without MDR inhibitor); type: cell-based, mouse; conditions: for IC50: 3 days
HL60/ADR cells = test: Reversal of MRP-mediated MDR in HL60/ADR cells (doxorubicin with or without MDR inhibitor); type: cell-based; conditions: for Fold reversal (IC50 doxorubicin alone / IC50 doxorubicin + MDR inhibitor): HL60/ADR
Description: We plated HL60/ADR cells in 96 well microtiter plates (4×10^4 cells/well). The cells were then exposed to various concentrations of doxorubicin (50 nM to 10 μM) in the presence or absence of various compounds of this invention at various concentrations (0.5-10 μM). After culturing the cells for 3 days, their viability was quantitated using the XTT dye method to assess mitochondrial function. […] IC50 values are expressed in nM. In all assays the intrinsic antiproliferative or cytotoxicity activity of the MDR inhibitors was also determined for HL60/ADR cells.

[1] = IC50 of doxorubicin in presence of 0.5 μM Cpd, read-out: IC50 DOX + 0.5 μM Cpd
[2] = IC50 of doxorubicin in presence of 1.0 μM Cpd, read-out: IC50 DOX + 1.0 μM Cpd
[3] = IC50 of doxorubicin in presence of 2.5 μM Cpd, read-out: IC50 DOX + 2.5 μM Cpd

Row | Fold reversal (IC50 doxorubicin alone / IC50 doxorubicin + MDR inhibitor) (HL60/ADR cells; ratio at 0.5 μM Cpd) | Fold reversal (IC50 doxorubicin alone / IC50 doxorubicin + MDR inhibitor) (HL60/ADR cells; ratio at 1.0 μM Cpd) | Fold reversal (IC50 doxorubicin alone / IC50 doxorubicin + MDR inhibitor) (HL60/ADR cells; ratio at 2.5 μM Cpd) | Structure (SMILES) | MDR ratio (IC50 Dox / IC50 Dox+Inhibitor) (L1210vDOX; MDR ratio at 0.5 μM Cpd) | MDR ratio (IC50 Dox / IC50 Dox+Inhibitor) (L1210vDOX; MDR ratio at 1.0 μM Cpd) | MDR ratio (IC50 Dox / IC50 Dox+Inhibitor) (L1210vDOX; MDR ratio at 2.5 μM Cpd) | IC50 (L1210vDOX; [1]) [nM] | IC50 (L1210vDOX; [2]) [nM] | IC50 (L1210vDOX; [3]) [nM] | IC50 (HL60/ADR cells; Homo sapiens, 72 h, doxorubicin alone, control of the compound of the line, HL60/ADR cells, 3 days, read-out: IC50 DOX Alone) [µM]
1 | – | – | – | COc1cc(C(=O)C(=O)N2CCCC[C@H]2C(=O)N(Cc2ccccc2)C2CCCc3ccc(OCc4ccncc4)cc32)cc(OC)c1OC (single isomer, unassigned) [Compound 15] | 6.1 | > 8.5 | > 8.5 | – | – | – | –
2 | 2.3 | 39 | > 60 | COc1cc(C(=O)C(=O)N2CCCC[C@H]2C(=O)N(Cc2ccccc2)C2CCCc3ccc(OCc4ccncc4)cc32)cc(OC)c1OC (single isomer, unassigned) [Compound 16] | 2.2 | 7.1 | > 8.5 | – | – | – | –
3 | – | – | – | CCCOc1cc2c(c(OCCC)c1C)CC[C@@H](Cc1cccnc1)[C@H]2OC(=O)[C@@H]1CCCCN1C(=O)C(=O)c1cc(OC)c(OC)c(OC)c1 (single isomer, unassigned) [Compound 29B] | 1.8 | 3.7 | > 7.0 | – | – | – | –
4 | – | – | – | CCCOc1cc2c(c(OCCC)c1C)CC[C@H](Cc1cccnc1)[C@H]2OC(=O)[C@@H]1CCCCN1C(=O)C(=O)c1cc(OC)c(OC)c(OC)c1 (single isomer, unassigned) [Compound 30A] | 1.4 | 2.3 | > 7.0 | – | – | – | –
5 | – | – | – | CCCOc1cc2c(c(OCCC)c1C)CC[C@@H](Cc1cccnc1)[C@@H]2OC(=O)[C@@H]1CCCCN1C(=O)C(=O)c1cc(OC)c(OC)c(OC)c1 (single isomer, unassigned) [Compound 30B] | 1.4 | 2.0 | > 7.0 | – | – | – | –
6 | 8.8 | 6.4 | 39 | COc1cc(C(=O)C(=O)N2CCCC[C@H]2C(=O)O[C@H]2CCCc3ccc(OCc4ccncc4)cc32)cc(OC)c1OC [Compound 6, 1-(2-Oxo-2-(3,4,5-trimethoxyphenyl)-acetyl)-piperidine-2(S)-carboxylic acid 2-((7-pyridin-4-ylmethoxy)-1,2,3,4-tetrahydronaphthalen-1(S)-yl) ester] | 4.8 | 6.3 | 9.5 | – | – | – | –
7 | – | – | – | COc1cc(C(=O)C(=O)N2CCCC[C@H]2C(=O)O[C@@H]2CCCc3ccc(OCc4ccncc4)cc32)cc(OC)c1OC [Compound 7, 1-(2 -Oxo-2(3,4,5-trimethoxyphenyl)-acetyl)-piperidine-2(S)-carboxylic acid 2-((7-pyridin-4-ylmethoxy)-1,2,3,4-tetrahydronaphthalen-1(R)-yl) ester] | 23.1 | 4.8 | 9.5 | – | – | – | –
8 | – | – | – | COc1cc(C(=O)C(=O)N2CCCC[C@H]2C(=O)OC2CCCc3c(OCc4ccncc4)cccc32)cc(OC)c1OC (stereo partly drawn) [Compound 9, 1-(2-Oxo-2-(3,4,5-trimethoxyphenyl)-acetyl)-piperidine-2(S)-carboxylic acid 2-((5-pyridin-4-ylmethoxy)-1,2,3,4-tetrahydronaphthalen-1-yl) ester] | 6.4 | 13.7 | 22.8 | 750 | 350 | 175 | –
9 | – | – | – | COc1cc(C(=O)C(=O)N2CCCC[C@H]2C(=O)N[C@@H]2CCCc3ccc(OCc4ccncc4)cc32)cc(OC)c1OC [Compound 11A, 1-(2-Oxo-2-(3,4,5-trimethoxyphenyl)-acetyl)-piperidine-2(S)-carboxylic acid 2-((7-pyridin-4-ylmethoxy)-1,2,3,4-tetrahydronaphthalen-1(R)-yl) amide] | 1.1 | 2.0 | 4.0 | 650 | 350 | 175 | –
10 | – | – | – | COc1cc(C(=O)C(=O)N2CCCC[C@H]2C(=O)N[C@H]2CCCc3ccc(OCc4ccncc4)cc32)cc(OC)c1OC [Compound 11B, 1-(2-Oxo-2-(3,4,5-trimethoxyphenyl)-acetyl)-piperidine-2(S)-carboxylic acid 2-((7-pyridin-4-ylmethoxy)-1,2,3,4-tetrahydronaphthalen-1(S)-yl) amide] | 1.8 | 2.2 | 10.0 | 400 | 325 | 70 | –
11 | 2.3 | 11.7 | 11.7 | COc1cc(C(=O)C(=O)N2Cc3ccccc3C[C@H]2C(=O)O[C@@H]2CCCc3ccc(OCc4ccncc4)cc32)cc(OC)c1OC [Compound 17, 2-(2-Oxo-2-(3,4,5-trimethoxyphenyl)-acetyl)-1,2,3,4-tetrahydroisoquinoline-3(S)-carboxylic acid 2-((7-pyridin-4-ylmethoxy)-1,2,3,4-tetrahydronaphthalen-1(R)-yl) ester] | 5.6 | 8.7 | 11.1 | – | – | – | –
12 | – | – | – | COc1cc(C(=O)C(=O)N2Cc3ccccc3C[C@H]2C(=O)O[C@H]2CCCc3ccc(OCc4ccncc4)cc32)cc(OC)c1OC [Compound 18, 2-(2-Oxo-2-(3,4,5-trimethoxyphenyl)-acetyl)-1,2,3,4-tetrahydroisoquinoline-3(S)-carboxylic acid 2-((7-pyridin-4-ylmethoxy)-1,2,3,4-tetrahydronaphthalen-1(S)-yl) ester] | 3.3 | 6.7 | 10.0 | – | – | – | –
13 | – | – | – | COc1cc(C(=O)C(=O)N[C@@H](Cc2ccccc2)C(=O)O[C@@H]2CCCc3ccc(OCc4ccncc4)cc32)cc(OC)c1OC [Compound 19, 3-Benzyl-2(S)-((2-oxo-2-(3,4,5-trimethoxyphenyl-)acetyl)amino) propanoic acid ((7-pyridin-4-ylmethoxy)-1,2,3,4-tetrahydronaphthalen-1(R)-yl) ester] | 1.6 | 2.4 | 6.3 | – | – | – | –
14 | – | – | – | COc1cc(C(=O)C(=O)N(C)[C@@H](Cc2ccccc2)C(=O)O[C@@H]2CCCc3ccc(OCc4ccncc4)cc32)cc(OC)c1OC [Compound 20, 3-Benzyl-2(S)-(methyl-(2-oxo-2-(3,4,5-trimethoxyphenyl)-acetyl)amino) propanoic acid ((7-pyridin-4-ylmethoxy)-1,2,3,4-tetrahydronaphthalen-1(R)-yl) ester] | 3.0 | 7.0 | 10.5 | – | – | – | –
15 | 3.5 | 3.2 | 23 | COc1cc(C(=O)C(=O)N(C)[C@@H](Cc2ccccc2)C(=O)O[C@H]2CCCc3ccc(OCc4ccncc4)cc32)cc(OC)c1OC [Compound 21] | 5.4 | 6.8 | 8.7 | – | – | – | –
16 | – | – | – | CCCOc1cc2c(c(OCCC)c1C)CC[C@H](Cc1cccnc1)[C@@H]2OC(=O)[C@@H]1CCCCN1C(=O)C(=O)c1cc(OC)c(OC)c(OC)c1 [Compound 29A] | 1.4 | 1.8 | > 7.0 | 250 | 190 | < 50 | –
17 | – | – | – | COc1cccc2c1C(=O)c1c(O)c3c(c(O)c1C2=O)C[C@@](O)(C(=O)CO)C[C@@H]3O[C@H]1C[C@H](N)[C@H](O)[C@H](C)O1 [DOX, doxorubicin, reference compound] | – | – | – | – | – | – | 3.5
